Source: PubChem BioAssay AID463206 (Broad Institute, 2010)
Calls of active or inactive are those of the source.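 Rule for the calls: active = caspase luminescence falls with dose and the half-maximal concentration AC50 from the fitted curve is at or below a set limit; inconclusive = flat fit at 30 to 70% signal loss, or invalid fit; inactive = AC50 above the limit, or signal rises instead.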

Tested on: INS-1E cytokine-induced caspase-3/7, Caspase-Glo luminescence, 48 h
Experiment: suppression of cytokine-driven beta-cell apoptosis – INS-1E rat cells, luminescence, orthogonal assay for beta-cell apoptosis protection project, dose response (AID 463206)

| Structure (SMILES) | AC50 |
| --- | --- |
| CC1=C(C)/C(=N\OS(=O)(=O)c2ccc(C)cc2)C=CC1=O | > 26 µM (inactive) |
| COc1ccc(C(=O)/C(=C\c2ccco2)N2C=CC=CC2=C(C#N)C#N)cc1 | > 26 µM (inactive) |
| CC1=NOC(=O)/C1=C/c1ccc(-c2ccc(Cl)cc2)o1 | > 26 µM (inactive) |
| COc1ccc(-c2csc(NC(=O)C3CCN(c4ncnc5sc(C)c(C)c45)CC3)n2)cc1OC | > 26 µM (inactive) |
| C=C1C(O)[C@@H]2O[C@]3(CC[C@H](/C=C/C(C)[C@@H]4CC(C)=CC5(O[C@H](C[C@@](C)(O)CO)CCC5O)O4)O3)CC[C@H]2O[C@@H]1C(O)CC(C)[C@H]1OC2(CCCCO2)CCC1C (stereo partly specified) | 3.84 µM |
| O=C(NCc1nc2ccccc2[nH]1)C1=C[C@@H](C2CCCCC2)C[C@@H](OCc2ccc(CO)cc2)O1 | > 26 µM (inactive) |
| NC1=NC[C@H](Cc2ccccc2)N1CCCCC1CCCCC1 | > 26 µM (inactive) |
| Oc1ccc(N=Nc2ccc3c(c2)OCCO3)c2ncccc12 | > 26 µM (inactive) |
| CCN1CCN(Cc2ccc(NC(=O)c3ccc(C)c(NC(=O)c4c[nH]c5cc(C(F)(F)F)ccc5c4=O)c3)cc2C(F)(F)F)CC1 | > 26 µM (inactive) |
| Cc1c(C(C)C)c(=O)n(-c2ccc(S(=O)(=O)NCc3ccccc3)cc2)n1C | > 26 µM (inactive) |
| CN1C2CCC1/C(=C/c1ccccn1)C(=O)/C2=C\c1ccccn1 | > 26 µM (inactive) |
| CCOC(=O)C(NCCc1ccc(F)cc1)(NC(=O)CC)C(F)(F)F (stereo unspecified) | > 26 µM (inactive) |
| CCC1=NN(C(=O)c2cccc(Br)c2)C(O)(c2ccc(Br)cc2)C1 (stereo unspecified) | > 26 µM (inactive) |
| CCOC(=O)c1[nH]cnc1N=Nc1c(O)ccc2ccccc12 | > 26 µM (inactive) |
| O=S(=O)(Nc1nc2ccccc2s1)c1ccc(Cl)s1 | > 26 µM (inactive) |
| O=C(NCc1cccnc1)/C(=C/c1ccc(-c2cccc(Cl)c2)o1)S(=O)(=O)c1ccccc1 | > 26 µM (inactive) |
| CCCCCc1ccc(OCCCC[n+]2ccc(C)cc2)c(CCCCC)c1 | > 26 µM (inactive) |
| Cc1ccc(-c2sc(-c3ccccc3)nc2CC(=O)Nc2ccccc2F)cc1 | > 26 µM (inactive) |
| Cc1ccc(N=Nc2ccc(O)c3ncccc23)cc1 | > 26 µM (inactive) |
| C=C(C)C(=O)O[C@H]1C/C(C)=C\C(=O)/C=C(\C)[C@H](O)[C@@H]2OC(=O)C(=C)[C@@H]21 | 3 µM |
| CN1c2ccccc2N(C)C1(C)c1ccccc1 | > 26 µM (inactive) |
| COc1cccc(/C=N/NC(=O)CNC(=O)c2cccs2)c1O | > 26 µM (inactive) |
| CC(Nc1ncnc2ccccc12)c1ccccc1 (stereo unspecified) | > 26 µM (inactive) |

| Structure (SMILES) | AC50 |
| --- | --- |
| CN(C)C1=NC[C@H](Cc2ccccc2)N1CCCC1CCCCC1 | > 26 µM (inactive) |
| CCCC(=O)NC(c1cccs1)c1cc(Cl)c2cccnc2c1O (stereo unspecified) | > 26 µM (inactive) |
| C[C@H]1CCC/C=C/[C@@H]2C[C@H](O)C[C@H]2[C@H](O)/C=C/C(=O)O1 | > 26 µM (inactive) |
| Cc1c(C(=O)Nc2nc(-c3ccccn3)cs2)oc2ccccc12 | > 26 µM (inactive) |
| O=S(=O)(Nc1cc(Sc2cccc3cccnc23)c(O)c2ccccc12)c1ccc(F)cc1 | > 26 µM (inactive) |
| Cc1ccc(-c2c[n+](Cc3ccc(Cl)cc3)c3n2CCC3)cc1 | > 26 µM (inactive) |
| C=C1[C@@H](O)[C@@H]2O[C@]3(CC[C@H](/C=C/[C@@H](C)[C@@H]4CC(C)=CC5(O[C@H](C[C@@](C)(O)C(=O)OC)CC[C@H]5O)O4)O3)CC[C@H]2O[C@@H]1[C@@H](O)C[C@H](C)[C@H]1OC2(CCCCO2)CC[C@H]1C (stereo partly specified) | > 26 µM (inactive) |
| Cc1ccc2nc(NC(=O)/C=C/c3ccc4c(c3)OCO4)sc2c1 | > 26 µM (inactive) |
| O=C(Nc1ccc([N+](=O)[O-])cc1)Nc1nc(-c2ccc(Cl)s2)cs1 | > 26 µM (inactive) |
| CC[n+]1ccc(/C=C/c2c[nH]c3ccccc23)cc1 | > 26 µM (inactive) |
| CN(C)c1cc[n+](CC(=O)Nc2ccc(Oc3ccccc3)cc2)cc1 | > 26 µM (inactive) |
| CC(=O)Nc1ccc(NC2=C/C(=N/S(=O)(=O)c3cccs3)c3ccccc3C2=O)cc1 | > 26 µM (inactive) |
| Cc1cc(C(=O)N/N=C/c2cc(Br)cc(Br)c2OC(=O)c2cccc(F)c2)n[nH]1 | > 26 µM (inactive) |
| COc1cc([N+](=O)[O-])cc(/C=N/NC(=O)c2cc(-c3ccccc3)nc3ccccc23)c1O | > 26 µM (inactive) |
| Cc1ccc(OCc2cc(C(=O)N(C)Cc3cc(C4CC4)n[nH]3)no2)cc1C | > 26 µM (inactive) |
| Cc1[nH]c2c(ccc3ccccc32)c1C1C(CCN)C1(C)C (stereo unspecified) | > 26 µM (inactive) |
| C/C(=N\NC(=O)c1ccccc1OCc1ccc(F)cc1)c1ccccn1 | > 26 µM (inactive) |
| CCCCCCCCCn1c2c(c(=N)c3c1CCC3)CCC2 | > 12 µM (inactive) |
| Cc1cc(N)c2cc(NC(=O)/C=C/c3ccccc3Cl)ccc2n1 | 23 µM |
| O=[N+]([O-])c1ccc(NC(=S)NCCc2ccc(F)cc2)cc1 | > 26 µM (inactive) |
| CCCCNc1c(-c2cccc(-c3ccc(OC)cc3)c2)nc2ccc(C)cn12 | > 26 µM (inactive) |
| Cc1ccc(S(=O)(=O)NCc2ccncc2)cc1C | > 26 µM (inactive) |
| Cc1ccc(S(=O)(=O)Nc2ccccc2N(C)S(=O)(=O)c2ccc(C)cc2)cc1 | > 26 µM (inactive) |

| Structure (SMILES) | AC50 |
| --- | --- |
| Cc1cccc(/C=N\NC(=O)c2ccc(Cl)cc2)c1O | > 26 µM (inactive) |
| COc1cccc(/C=N/NC(=O)c2cc3cc([N+](=O)[O-])ccc3s2)c1O | > 26 µM (inactive) |
| C/C(=N\NC(=O)c1nnn(-c2nonc2N)c1-c1ccccc1)c1ccccc1O | > 26 µM (inactive) |
| CCN(CC)C(=O)c1ccc(S(=O)(=O)N2CCC(c3nc4ccccc4s3)CC2)cc1 | > 26 µM (inactive) |
| COc1cc(NC(C)CCCN)c2ncccc2c1 (stereo unspecified) | > 26 µM (inactive) |
| CCCCn1c(=N)n(CC(=O)c2ccc(Br)s2)c2ccccc21 | > 26 µM (inactive) |
| CCN(CC)c1ccc(/C=N/NC(=O)c2c(Cl)cnn2C)c(O)c1 | > 26 µM (inactive) |
| c1cc(-c2noc(CC3CCCCC3)n2)ccn1 | > 26 µM (inactive) |
| Cn1c(/C=C/c2ccc([N+](=O)[O-])o2)nc2ccccc2c1=O | > 26 µM (inactive) |
| Cc1cc(/C=C2/SC(=S)N(c3ccc([N+](=O)[O-])cc3)C2=O)c(C)n1-c1cccnc1 | > 26 µM (inactive) |
| CCCNC(=O)c1c(N)n(-c2cccc(OC)c2)c2nc3ccccc3nc12 | > 26 µM (inactive) |
| COc1ccc(-c2c[n+]3c(n2-c2ccc(C)cc2)CCCCC3)cc1 | > 26 µM (inactive) |
| Cc1cccc(/C=N/NC(=O)c2c(-c3ccccc3)noc2C)c1O | > 26 µM (inactive) |
| COc1nnc(-c2ccc(N3CCCCC3)c(NC(=O)C3CCCCC3)c2)c2ccccc12 | > 26 µM (inactive) |
| CCCCn1c(NS(=O)(=O)c2ccccc2)c(S(=O)(=O)c2ccc(C)cc2)c2nc3ccccc3nc21 | > 12 µM (inactive) |
| CC(C)(C)n1ncc2c(=O)n(Cc3cccc(Cn4cnc5c(cnn5C(C)(C)C)c4=O)c3F)cnc21 | > 26 µM (inactive) |
| COC(=O)[C@H](CC(C)C)N(Cc1ccccc1)S(=O)(=O)N(Cc1ccccc1)[C@@H](CC(C)C)C(=O)OC | > 26 µM (inactive) |
| COc1cc(CNCCO)cc(Cl)c1OCc1ccc(Cl)cc1Cl | > 26 µM (inactive) |
| OC(CNCCC1C=Nc2ccccc21)Cn1c2ccc(Cl)cc2c2cc(Cl)ccc21 (stereo unspecified) | > 26 µM (inactive) |
| Oc1c(C(Nc2ccccn2)c2ccccn2)ccc2cccnc12 (stereo unspecified) | > 12 µM (inactive) |
| COc1cc2cc(C(=O)N3CCOCC3)cc(-c3ccc(C)cc3)c2cc1OC | > 26 µM (inactive) |
| Cc1ccc(C)c(NS(=O)(=O)c2ccc(OCC(=O)NCc3cccnc3)cc2)c1 | > 26 µM (inactive) |
| CC(=O)Nc1ccc(S(=O)(=O)NC2=C(N3CCN(C)CC3)C(=O)c3ccccc3C2=O)cc1 | > 26 µM (inactive) |

| Structure (SMILES) | AC50 |
| --- | --- |
| COCCn1c(SCC(=O)/C=C2\N(C)c3ccccc3C2(C)C)nnc1-c1ccncc1 | > 26 µM (inactive) |
| C/C(=N\Nc1nc(C)cc(-c2ccccc2)n1)c1cccc(N)c1 | > 26 µM (inactive) |
| O=C(NC1(Cc2ccccc2)CCN(CCCc2ccccc2)C1=O)c1ccccc1 (stereo unspecified) | > 26 µM (inactive) |
| C=CC(C)(C)c1c(O)c(CC=C(C)C)c(O)c2c(=O)c3ccc(O)c(O)c3oc12 | > 26 µM (inactive) |
| COc1ccc(C(=O)N/N=C(\C)c2ccccn2)cc1OC | > 26 µM (inactive) |
| CCCCNc1c(-c2ccc(OC)c(SC(C)CC)c2)nc2ccc(C)cn12 (stereo unspecified) | > 26 µM (inactive) |
| Cc1ccc(C(=O)NC2CCCc3c2cnn3-c2ccc(F)cc2F)cn1 (stereo unspecified) | > 26 µM (inactive) |
| O=C(NCc1cccnc1)/C(=C\c1ccc(-c2ccc(Cl)c(Cl)c2)o1)S(=O)(=O)c1ccccc1 | > 26 µM (inactive) |
| CCOc1ccc(C(=O)N/N=C(\c2ccccc2)c2ccccn2)cc1 | > 26 µM (inactive) |
| Cc1ccc2ccc3ccc(C)nc3c2n1 | > 26 µM (inactive) |
| CCC1(OC(=O)CN)C(=O)OCc2c1cc1n(c2=O)Cc2cc3ccccc3nc2-1 (stereo unspecified) | 0.33 µM |
| C=C(C(=O)c1ccccc1)C(C)C(=C)C(=O)c1ccccc1 | > 26 µM (inactive) |
| Oc1ccccc1/C=N/Nc1nc2ccccc2o1 | > 26 µM (inactive) |
| COc1ccc(NC(=O)/C(Cl)=C(/Cl)S(=O)Cc2ccccc2)cn1 (stereo unspecified) | > 26 µM (inactive) |
| CCCCCCCCNc1ncnc2ccccc12 | > 26 µM (inactive) |
| Cc1cc(OCC(=O)N(C)Cc2ccccc2)ccc1Cl | > 26 µM (inactive) |
| CCCCCCCCCCCCn1ccc(=N)cc1 | > 26 µM (inactive) |
| COc1ccc(CCNc2ccc(C(CC(N)=O)NC(=O)c3ccc(Br)cc3)cc2[N+](=O)[O-])cc1 (stereo unspecified) | > 26 µM (inactive) |
| Cc1ccc(NS(=O)(=O)c2ccc(NC(=O)CN(c3cc([N+](=O)[O-])ccc3C)S(C)(=O)=O)cc2)c(C)c1 | > 26 µM (inactive) |
| O=C(NCc1cccnc1)/C(=C\c1ccc(-c2cccc(Cl)c2)o1)S(=O)(=O)c1ccccc1 | > 26 µM (inactive) |
| Cc1ccc(NS(=O)(=O)c2cc([N+](=O)[O-])ccc2NNC(=S)Nc2cc(C)ccc2C)c(C)c1 | > 26 µM (inactive) |
| Cc1[nH]n(C2=NCCS2)c(=O)c1N=Nc1cccc(C(F)(F)F)c1 | > 26 µM (inactive) |
